Reference: patent publication US20110319464A1, “METHODS FOR TREATING BENIGN PROSTATIC HYPERPLASIA” (KISSEI PHARMACEUTICAL CO., LTD., priority 2007, published 2011)

System: symptoms of BPH
Assay: Study C: 4 mg or 8 mg Silodosin Once Daily (KMD-3213-US021-99), U.S. Phase 2 Study
Format: in vivo, human
Method: The 6-week stable dosing period was preceded by a 4-week placebo lead-in and a 2-week titration period. […] Male patients were selected who were at least 45 years of age with signs and symptoms of BPH (AUASS of 13 and maximum urine flow rate between 4 and 15 mL/sec). In addition, the results for IPSS/AUASS for studies A, B, D and E are illustrated in FIGS. 3 to 6, respectively, and the results for Qmax for studies A, B, D and E are illustrated in FIGS. 7 to 10, respectively.

[1] = 4 mg once daily, Visit 3 (Day 29), Post-dose (2-6 hr), LOCF
[2] = 4 mg once daily, Visit 4 (Day 36), LOCF
[3] = 4 mg once daily, Visit 4 (Day 36), Post-dose (2-6 hr), LOCF
[4] = 4 mg once daily, Visit 5 (Day 43), LOCF
[5] = 4 mg once daily, Visit 5 (Day 43), Post-dose (2-6 hr), LOCF
[6] = 4 mg once daily, Visit 6 (Day 64), LOCF
[7] = 4 mg once daily, Visit 6 (Day 64), Post-dose (2-6 hr), LOCF
[8] = 4 mg once daily, Visit 7 (EOS, Day 84), LOCF
[9] = 4 mg once daily, Visit 7 (EOS, Day 84), Post-dose (2-6 hr), LOCF
[10] = 8 mg once daily, Visit 3 (Day 29), Post-dose (2-6 hr), LOCF
[11] = 8 mg once daily, Visit 4 (Day 36), LOCF
[12] = 8 mg once daily, Visit 4 (Day 36), Post-dose (2-6 hr), LOCF
[13] = 8 mg once daily, Visit 5 (Day 43), LOCF
[14] = 8 mg once daily, Visit 5 (Day 43), Post-dose (2-6 hr), LOCF
[15] = 8 mg once daily, Visit 6 (Day 64), LOCF
[16] = 8 mg once daily, Visit 6 (Day 64), Post-dose (2-6 hr), LOCF
[17] = 8 mg once daily, Visit 7 (EOS, Day 84), LOCF
[18] = 8 mg once daily, Visit 7 (EOS, Day 84), Post-dose (2-6 hr), LOCF
[19] = Study C, 4 mg once daily, Week 0
[20] = Study C, 4 mg once daily, Week 1
[21] = Study C, 4 mg once daily, Week 2
[22] = Study C, 4 mg once daily, Week 5
[23] = Study C, 4 mg once daily, Week 8

C[C@H](Cc1cc2c(c(C(N)=O)c1)N(CCCO)CC2)NCCOc1ccccc1OCC(F)(F)F [Silodosin]
Q-max, Mean (SD) [1]: 12.2 (4.4) ml/sec
Q-max, Mean change (SD) [1]: 2.5 (3.6) ml/sec
Q-max, Mean (SD) (4 mg once daily, Visit 3 (baseline, Day 29), Pre-dose, LOCF): 9.7 (3.0) ml/sec
Total IPSS/AUASS Score, Mean (SD) (4 mg once daily, Visit 3 (baseline, Day 29), modified intent to treat (LOCF)): 19.7 (5.1)
Total IPSS/AUASS Score, Mean (SD) [2]: 17.3 (5.6)
Total IPSS/AUASS Score, Mean change (SD) [2]: −2.4 (4.0)
Q-max, Mean (SD) [3]: 12.4 (4.7) ml/sec
Q-max, Mean change (SD) [3]: 2.7 (4.4) ml/sec
Total IPSS/AUASS Score, Mean (SD) [4]: 15.5 (5.6)
Total IPSS/AUASS Score, Mean change (SD) [4]: −4.2 (4.5)
Q-max, Mean (SD) [5]: 12.2 (4.7) ml/sec
Q-max, Mean change (SD) [5]: 2.6 (4.2) ml/sec
Total IPSS/AUASS Score, Mean (SD) [6]: 14.6 (6.0)
Total IPSS/AUASS Score, Mean change (SD) [6]: −5.1 (5.1)
Q-max, Mean (SD) [7]: 12.0 (4.3) ml/sec
Q-max, Mean change (SD) [7]: 2.3 (4.1) ml/sec
Total IPSS/AUASS Score, Mean (SD) [8]: 13.9 (6.0)
Total IPSS/AUASS Score, Mean change (SD) [8]: −5.7 (5.5)
Q-max, Mean (SD) [9]: 12.6 (4.4) ml/sec
Q-max, Mean change (SD) [9]: 2.9 (4.0) ml/sec
Q-max, Mean (SD) [10]: 11.7 (3.5) ml/sec
Q-max, Mean change (SD) [10]: 2.0 (3.1) ml/sec
Q-max, Mean (SD) (8 mg once daily, Visit 3 (baseline, Day 29), Pre-dose, LOCF): 9.6 (2.7) ml/sec
Total IPSS/AUASS Score, Mean (SD) (8 mg once daily, Visit 3 (baseline, Day 29), modified intent to treat (LOCF)): 20.8 (5.3)
Total IPSS/AUASS Score, Mean (SD) [11]: 18.0 (6.0)
Total IPSS/AUASS Score, Mean change (SD) [11]: −2.7 (3.7)
Q-max, Mean (SD) [12]: 12.5 (4.8) ml/sec
Q-max, Mean change (SD) [12]: 2.9 (4.4) ml/sec
Total IPSS/AUASS Score, Mean (SD) [13]: 16.5 (6.0)
Total IPSS/AUASS Score, Mean change (SD) [13]: −4.3 (3.9)
Q-max, Mean (SD) [14]: 12.5 (5.7) ml/sec
Q-max, Mean change (SD) [14]: 2.9 (5.4) ml/sec
Total IPSS/AUASS Score, Mean (SD) [15]: 15.9 (6.4)
Total IPSS/AUASS Score, Mean change (SD) [15]: −4.9 (4.6)
Q-max, Mean (SD) [16]: 12.9 (5.6) ml/sec
Q-max, Mean change (SD) [16]: 3.2 (5.5) ml/sec
Total IPSS/AUASS Score, Mean (SD) [17]: 14.0 (6.5)
Total IPSS/AUASS Score, Mean change (SD) [17]: −6.8 (5.8)
Q-max, Mean (SD) [18]: 13.0 (5.8) ml/sec
Q-max, Mean change (SD) [18]: 3.5 (5.7) ml/sec
Incidence of Adverse Events: Dizziness (Study C, 4 mg once daily): 9.1 % of patients
Incidence of Adverse Events: Orthostatic Hypotension (Study C, 4 mg once daily): 4.5 % of patients
Incidence of Adverse Events: Syncope (Study C, 4 mg once daily): 0 % of patients
Mean Change From Baseline (CFB) in Maximum Flow Rate (Study C, 4 mg once daily, 2-6 hrs after 1st dose): 2.5 mL/s
IPSS/AUASS baseline value [19]: 19.7
Maximum Flow Rate baseline value [19]: 9.7 mL/s
Mean Change From Baseline (CFB) in IPSS/AUASS [20]: −2.4
Mean Change From Baseline (CFB) in Maximum Flow Rate [20]: 2.7 mL/s
Mean Change From Baseline (CFB) in IPSS/AUASS [21]: −4.2
Mean Change From Baseline (CFB) in Maximum Flow Rate [21]: 2.6 mL/s
Mean Change From Baseline (CFB) in IPSS/AUASS [22]: −5.1
Mean Change From Baseline (CFB) in Maximum Flow Rate [22]: 2.3 mL/s
Mean Change From Baseline (CFB) in IPSS/AUASS [23]: −5.7
Mean Change From Baseline (CFB) in Maximum Flow Rate [23]: 2.9 mL/s
Incidence of Adverse Events: Dizziness (Study C, 8 mg once daily): 5.6 % of patients
Incidence of Adverse Events: Orthostatic Hypotension (Study C, 8 mg once daily): 3.3 % of patients
Incidence of Adverse Events: Syncope (Study C, 8 mg once daily): 0 % of patients
